target: SYK (Homo sapiens (Human), UniProt P43405); experiment: SYK inhibition assay (phosphorylation of FAM-labeled SYK-specific substrate, Caliper LC-3000); type: biochemical; conditions: SYK kinase domain (residues 356-635); 5FAM-KKKKEEIYFFFG-NH2 substrate, ATP, 60 min at RT; pIC50 = -log(IC50), IC50 molar
Protocol: SYK protein is prepared from cDNA encoding human spleen tyrosine kinase and is expressed in insect cells using a baculovirus expression vector. […] The recombinant bacmid DNA is isolated and transfected into Sf9 insect cells. Recombinant virus is harvested 72 h after transfection. High titer viral stock is prepared by infecting Sf9 cells at a multiplicity of infection (MOI) of approximately 0.01. A suspension of Sf9 cells (10 L) is infected with recombinant virus (MOI=5) and is incubated in a Wave Bioreactor (GE-Healthcare) for 48 h. The cells are harvested and stored at −80° C.
To purify the expressed protein, the frozen Sf9 cells (10 L) are broken into small (<1 cm) particles and suspended in a lysis buffer (300 mL) containing 20 mM Tris (pH 7.6), 0.25 mM TCEP, 100 mM NaCl, 5% glycerol and a protease inhibitor. The suspension is stirred at RT until completely thawed, lysed an additional 2-4 min on a rotary blade homogenizer, and then centrifuged at 4200 g for 1 h. Following centrifugation, the supernatant is poured through cheese cloth and combined with a nickel chelating resin (Probond Resin™, Invitrogen) which is pre-equilibrated in a wash buffer containing 10 mM Tris (pH 7.6), 0.25 mM TCEP, 300 mM NaCl, 5% glycerol, and 20 mM imidazole. The mixture is agitated for 3 h in a cold room and then centrifuged at 900 g for 10 min. The resin is dispersed in wash buffer (50 mL), centrifuged for 10 min at 900 g, re-dispersed in a small amount of wash buffer (5 mL), and then pour into a disposable Poly-Prep chromatography column, through which wash buffer is passed by gravity until no protein is observed in coomassie buffer (about 120 mL of wash buffer). An elution buffer (30 mL) containing 10 mM HEPES (pH 7.4), 150 mM NaCl, 10% glycerol, 5 mM DTT, and 400 mM imidazole is used to elute the SYK protein from the resin. The eluate is concentrated (5 mL) and further purified on a Superdex 200 column (1.2 mL/min for 160 min, 10 mM HEPES (pH 7.4), 10 mM NaCl, 10 mM MgCl, 0.1 mM EDTA, and 0.25 mM TCEP). The chromatographed fractions are run on SDS-PAGE and the requisite fractions are pooled and concentrated. Final delivery buffer is 10 mM HEPES (pH 7.4), 10 mM Methione, 150 mM NaCl, 10% glycerol, 5 mM DTT.
SYK inhibition is determined using a black 384 well plate format in buffer containing 50 mM HEPES, 10 mM NaCl, 10 mM MgCl2, 0.2 mM EDTA, 0.01% EDA (Brij® 35), 1 mM DTT, and 0.1 mg/ml BSA at pH 7.3. Each test compound is prepared in DMSO using 2-fold serial dilutions for 11 data points, which are added to the buffer so that each dilution contains 3% DMSO. […] The reaction mixture is incubated at RT for 60 min, and quenched by adding 50 mM Hepes, 30 mM EDTA, 0.1% Triton X-100 (pH 7.3). To quantify the fluorescent-labeled substrate and product following reaction, the test plate is loaded on a Caliper LC-3000, which measures percent of conversion by microfluidic-based separation. Corresponding IC50 values are calculated by non-linear curve fitting of the compound concentrations and percent of inhibition to the standard IC50 equation and reported as pIC50, i.e., −log(IC50), where IC50 is molar concentration.

In order of falling “SYK Inhibition (pIC50)” value:
1. Cn1cc(-c2nc(N[C@@H]3CCCC(F)(F)[C@@H]3N)c(F)c3c2C(=O)NC3)cn1 (relative stereo) [Example 67, 6-(cis-2-Amino-3,3-difluorocyclohexylamino)-7-fluoro-4-(1-methyl-1H-pyrazol-4-yl)-1H-pyrrolo[3,4-c]pyridin-3(2H)-one]  7.4
2. N[C@@H]1[C@H](Nc2nc(-c3cnn(C(F)F)c3)c3c(c2F)CNC3=O)CCCC1(F)F (relative stereo) [Example 68, 6-(cis-2-Amino-3,3-difluorocyclohexylamino)-4-(1-(difluoromethyl)-1H-pyrazol-4-yl)-7-fluoro-1H-pyrrolo[3,4-c]pyridin-3(2H)-one]  7.0
3. N[C@@H]1[C@H](Nc2nc(-c3cnn(C4CC4)c3)c3c(c2F)CNC3=O)CCCC1(F)F (relative stereo) [Example 69, 6-(cis-2-amino-3,3-difluorocyclohexylamino)-4-(1-cyclopropyl-1H-pyrazol-4-yl)-7-fluoro-1H-pyrrolo[3,4-c]pyridin-3(2H)-one]  6.8
4. Cn1cc(-c2nc(N[C@@H]3CC(F)(F)C[C@@H]3N)c(F)c3c2C(=O)NC3)cn1 (relative stereo) [Example 66, 6-(cis-2-Amino-4,4-difluorocyclopentylamino)-7-fluoro-4-(1-methyl-1H-pyrazol-4-yl)-1H-pyrrolo[3,4-c]pyridin-3(2H)-one]  6.3
5. Cc1cccc(Nc2nc(N[C@@H]3CCCC[C@@H]3O)nc3c2C(=O)NC3)c1 (relative stereo) [Example 11, cis-2-(2-Hydroxycyclohexylamino)-4-(m-tolylamino)-6,7-dihydro-5H-pyrrolo[3,4-d]pyrimidin-5-one]  5.9
6. Cc1cccc(Nc2nc(N[C@@H]3COC[C@@H]3N)cc3c2C(=O)NC3)c1 (relative stereo) [Example 58, 6-(cis-4-Aminotetrahydrofuran-3-ylamino)-4-(m-tolylamino)-1H-pyrrolo[3,4-c]pyridin-3(2H)-one]  5.8
7. Cc1cccc(Nc2nc(N[C@H]3COCC[C@H]3N)cc3c2C(=O)NC3)c1 [Example 86, 6-((3R,4R)-4-Aminotetrahydro-2H-pyran-3-ylamino)-4-(m-tolylamino)-1H-pyrrolo[3,4-c]pyridin-3(2H)-one]  5.6

Reference: patent publication US20230295171A1, “FUSED HETEROAROMATIC PYRROLIDINONES” (Calithera Biosciences, Inc., priority 2009, published 2023)
